According to paper PMC13237374 (Communications Chemistry, 2026):

Assays:
Type in all cases: physicochemical
[1] = Aβ42 ThT aggregation assay
Description: It was incubated at different concentrations in the presence of 20 μM ThT quiescently at 37 °C in 96-well half-area non-binding plates (Corning 3881), with 100 μL per well and five replicate wells per concentration. An aluminum film coating minimized evaporation. The fluorescence emission of ThT at 480 nm upon excitation at 440 nm was monitored using a FLUOstar Omega plate-reader (BMG Labtech GmbH, Germany) using a cycle time of 300 s with 40 flashes per reading and 0.2 s settling time per cycle.

[2] = High-seeded (20–50% seed:total protein) ThT aggregation assay of medin; conditions: for Elongation rate constant k+, fit result: high-seeded assay fitted individually
Description: (§1) All assays were carried out at 37 °C in quiescent conditions at 100 µL sample volume per well in 96-well half-area non-binding plates (Corning 3881), with an aluminum film coating to minimize evaporation. […] ThT fluorescence emission at 480 nm, when excited at 440 nm, was monitored using a FLUOstar Omega plate-reader (BMG Labtech GmbH, Germany) using a cycle time of 180 s with 40 flashes per reading and 0.2 s settling time per cycle. The unseeded reactions were repeated thrice using three different batches of protein.
Amyloid aggregation was monitored using 20 µM ThT in replicate wells. The overnight-grown fibrils were sonicated for 15 s at 50% duty cycle and 10% power using a microtip sonicator (Bandelin Sonopuls, Germany) to produce seeds for subsequent seeded aggregation assays.
(§2) After removing outliers manually, the resultant data from kinetic assays were normalized and analyzed using the online platform AmyloFit 2.0[46] made for global aggregation kinetic data-fitting. All data representations have been produced in GraphPad Prism 2.0. Half-times of unseeded aggregation assays were calculated in the AmyloFit 2.0 platform. For comparison of aggregation half-times of unseeded and low-seeded reactions, data were normalized and fitted using GraphPad Prism 2.0 with2 y=ymin+ymax−ymin/1+t1/2/t^c where y is the normalized ThT fluorescence and c is a constant. All data were fitted with the corresponding model using 50 basin hops to ensure convergence, and the fit with the least MSE was considered the best fit. Two models were used with the consideration of the presence or absence of seeds: secondary nucleation dominated[11] and fragmentation dominated mechanisms. […] The average fibril length for pre-formed aggregate seeds was assumed to be 10,000 monomers.

[3] = Salt (NaCl) titration of medin ThT aggregation kinetics; conditions: [Medin] 75 nM, N = 1, n = 5
Description: as §1
For salt titration experiments, 20 mM NaPi 1 M NaCl 0.2 mM EDTA pH 7.4 was diluted to the final reaction mixtures at final NaCl concentrations of 0, 40, 150, and 500 mM before incubation in replicate wells of a non-binding plate and monitoring of aggregation kinetics as described above.
as §2

[4] = Low-seeded (1% seed:monomer) ThT aggregation assay of medin
Description: After removing outliers manually, the resultant data from kinetic assays were normalized and analyzed using the online platform AmyloFit 2.0[46] made for global aggregation kinetic data-fitting. […] Half-times of unseeded aggregation assays were calculated in the AmyloFit 2.0 platform. For comparison of aggregation half-times of unseeded and low-seeded reactions, data were normalized and fitted using GraphPad Prism 2.0 with2 y=ymin+ymax−ymin/1+t1/2/t^c where y is the normalized ThT fluorescence and c is a constant. […]

[5] = Global kinetic fitting (AmyloFit 2.0) of unseeded, low-seeded and high-seeded medin ThT data
Description: as §2

[6] = Critical concentration of medin aggregation from ThT amplitude; conditions: half-maximal point of sigmoidal fit of ThT amplitude at 0–40 nM monomer; 20 µM ThT, pH 7.4, 37 °C, quiescent
[7] = Dynamic light scattering (DLS) of medin
Description: Samples were withdrawn at different time intervals, and the particle size distribution was monitored at 20 °C in a Malvern Zetasizer Nano instrument (Malvern Instruments Limited, United Kingdom) at 70 µL volume (N = 3, n = 3). Two outliers were removed manually before data analysis.

[8] = Unseeded ThT aggregation kinetics of medin monomer; conditions: for Primary nucleation order nc, fit result: unseeded assay fitted individually
Description: After removing outliers manually, the resultant data from kinetic assays were normalized and analyzed using the online platform AmyloFit 2.0[46] made for global aggregation kinetic data-fitting. […] Half-times of unseeded aggregation assays were calculated in the AmyloFit 2.0 platform. For comparison of aggregation half-times of unseeded and low-seeded reactions, data were normalized and fitted using GraphPad Prism 2.0 with2 y=ymin+ymax−ymin/1+t1/2/t^c where y is the normalized ThT fluorescence and c is a constant. All data were fitted with the corresponding model using 50 basin hops to ensure convergence, and the fit with the least MSE was considered the best fit. Two models were used with the consideration of the presence or absence of seeds: secondary nucleation dominated[11] and fragmentation dominated mechanisms[45]. […] The average fibril length for pre-formed aggregate seeds was assumed to be 10,000 monomers[46].

[9] = secondary nucleation dominated model
[10] = global data analysis, fragmentation dominated
[11] = global data analysis, secondary nucleation dominated
[12] = unseeded assays, N = 3, fragmentation dominated, no seed
[13] = unseeded assays, N = 3, secondary nucleation dominated, no seed

Q: What does the source list for “Aβ42: human amyloid-β 42 peptide, recombinantly produced, comparator amyloid”?
A: concentrations at which no aggregation was observed within 24 hours ([1]; 20 mM NaPi 0.2 mM EDTA pH 7.4, 37 °C, quiescent, 20 µM ThT): below 117 nM; aggregation half-time t1/2 ([1]; […] Aβ42, pH 7.4, 37 °C): 1.9 h

Q: With “medin: 50-residue peptide cleaved from lactadherin, forms aortic medial amyloid; produced recombinantly in E. coli” as the substance, how does the elongation rate constant ([2]; as printed in the Introduction, physiological pH and temperature in vitro) read?
A: ~ 10^7 s^−1

Q: What about the “Elongation rate constant k+, fit result” value ([2]; fragmentation dominated model) of the same substance?
A: 5.4e+07 M⁻¹ s⁻¹

Q: What about the “Elongation rate constant k+, fit result” value [2, 9] of the same substance?
A: 5.34e+07 M⁻¹ s⁻¹

Q: And the “elongation rate constant k+” value ([2]; high-seeded: 187.5–500 nM monomer + 187.5 nM pre-formed fibrils (20–50% seed:total protein), pH 7.4, 37 °C, quiescent, 20 µM ThT, AmyloFit fit of first phase)?
A: 5e+07 M⁻¹ s⁻¹

Q: And the “Mean t1/2” value ([3]; [NaCl] 0 mM)?
A: 3.2 h

Q: And the “Mean t1/2” value ([3]; [NaCl] 40 mM)?
A: 2.4 h

Q: And the “Mean t1/2” value ([3]; [NaCl] 150 mM)?
A: 2.5 h

Q: What about the “Mean t1/2” value ([3]; [NaCl] 500 mM) of the same substance?
A: 2.4 h

Q: What about the “rate constant of the monomer-independent secondary pathway (k2 or k−)” value ([4]; 50–[…] monomer, pH 7.4, 37 °C, 20 µM ThT) of the same substance?
A: 4e-08 s⁻¹

Q: And the “secondary nucleation reaction order n2” value [4, 9]?
A: ~ 0

Q: And the “primary nucleation reaction order nc” value ([5]; global analysis of all assays)?
A: ~1

Q: What about the “primary nucleation rate constant kn” value ([5]; global analysis of unseeded, low-seeded and high-seeded data, saturated secondary nucleation (n2 = 0) or fragmentation model) of the same substance?
A: 1e-08 s⁻¹

Q: And the “Elongation rate constant k+, fit result” value [5, 10]?
A: 9.53e+06 M⁻¹ s⁻¹

Q: What about the “Primary nucleation order nc, fit result” value [5, 10] of the same substance?
A: ~ 1

Q: And the “Primary nucleation rate constant kn, fit result” value [5, 10]?
A: 1.15e-08 s⁻¹

Q: What about the “Secondary pathway rate constant k−, fit result” value [5, 10] of the same substance?
A: 3.14e-07 s⁻¹

Q: And the “Elongation rate constant k+, fit result” value [5, 11]?
A: 9.46e+06 M⁻¹ s⁻¹

Q: What about the “Primary nucleation order nc, fit result” value [5, 11] of the same substance?
A: ~ 1

Q: What about the “Primary nucleation rate constant kn, fit result” value [5, 11] of the same substance?
A: 1.13e-08 s⁻¹

Q: And the “Secondary nucleation order n2, fit result” value [5, 11]?
A: ~ 0

Q: And the “Secondary pathway rate constant k2, fit result” value [5, 11]?
A: 3.23e-07 s⁻¹

Q: And the “critical concentration of medin aggregation” value [6]?
A: ~ 14 nM

Q: What about the “hydrodynamic diameter of aggregates” value ([7]; 10 µM medin after quiescent incubation at pH 7.4 and 37 °C, DLS) of the same substance?
A: 200–3200 nm

Q: And the “incubation time until first traces of higher molecular weight species” value ([7]; 10 µM medin monomer on ice, DLS)?
A: at least 1.5 hours

Q: What about the “hydrodynamic diameters of monomeric and initial oligomeric species” value ([7]; 10 µM medin, DLS at 20 °C, N = 3, n = 3) of the same substance?
A: 0.4–6 nm

Q: What about the mean hydrodynamic diameter ([7]; purely monomeric medin, 10 µM in aggregation assay buffer, freshly eluted) of the same substance?
A: 0.67 nm

Q: What about the “aggregation of 10 nM medin monomer” value ([8]; 10 nM monomer, over 16 h, ThT) of the same substance?
A: no aggregation

Q: What about the “lowest concentration at which amyloid fibrils form spontaneously” value ([8]; physiological pH and temperature, quiescent solution) of the same substance?
A: 25 nM

Q: And the “Primary nucleation order nc, fit result” value ([8]; fragmentation dominated, no seed)?
A: ~ 1

Q: What about the “Primary nucleation order nc, fit result” value ([8]; secondary nucleation dominated, no seed) of the same substance?
A: ~ 1

Q: What about the “primary nucleation reaction order nc” value ([8]; unseeded assay, secondary nucleation- or fragmentation-dominated spontaneous aggregation model) of the same substance?
A: ~ 1

Q: What about the “Combined rate constant k+kn, average value” [8, 12] of the same substance?
A: 7.3 M-1s-2

Q: What about the “Combined rate constant k+k−, average value” [8, 12] of the same substance?
A: 1.7 M-1s-2

Q: And the “Primary nucleation reaction order nc, average value” [8, 12]?
A: 1.4

Q: What about the “Combined rate constant k+k2, average value” [8, 13] of the same substance?
A: 22.3 M-1s-2

Q: And the “Primary nucleation reaction order nc, average value” [8, 13]?
A: ~ 1

Q: And the “Secondary nucleation reaction order n2, average value” [8, 13]?
A: ~ 0

Q: What about the “Combined rate constant k+kn, average value” ([8]; unseeded assays, biological replicates N = 3 (different batches), secondary nucleation dominated, no seed) of the same substance?
A: 0.1 M-1s-2
